The values that follow come from PMC12259270, “Sensory neuron–expressed FGF13 controls nociceptive signaling in diabetic neuropathy models” (The Journal of Clinical Investigation, 2025).

The test system of assay [1] is C57BL/6 mice. Briefly: Thermal sensitivity (Hargreaves radiant heat) after intraplantar injection, mice without capsaicin. The format is in vivo, mouse. The protocol:
(§1) Experiments were performed on 6- to 12-week-old male C57BL/6 mice (The Jackson Laboratory, Bar Harbor, ME) housed in the AAALAC-accredited facility at the University of Texas Medical Branch. Mice were group-housed with up to 5 mice per cage on a 12-to-12-hour light–dark cycle and had access to water and food ad libitum. All protocols were approved by the Institutional Animal Care and Use Committee (IACUC) at the University of Texas Medical Branch and in accordance with the National Institutes of Health (NIH) guidelines.
(§2) PW164 and ZL192 were dissolved in DMSO and saline in a ratio of 1:10. 0.1% capsaicin (10% ethanol, 10% Tween-20 in saline; Sigma-Aldrich). All the compounds were injected at the center of the hind paw. The control group received a DMSO-saline mixture. […]
AAV2 viral particles packaged by the University of North Carolina Gene Therapy Core Facility (viral titer ranging […]
Before intrathecal injections in the lumbar region, mice were maintained in an anesthetizing box with 2% isoflurane to induce unconsciousness. Six microliters of viral vector were gently injected into the CSF through a 30-gauge needle with a Hamilton syringe in the lumbar area between vertebrae L4 and L5 by gently gripping the iliac crest of the mouse and inserting the needle with an angle of 45°. The correct procedure was confirmed by the mouse’s tail reflexiv e flick. […]
Assessment of thermal sensitivity
Plantar tests for thermal sensitivity were performed using the Hargreaves apparatus (Ugo Basile, Italy) in mice that were either naïve or received i.p. injection of capsaicin or test compound. A thermal stimulus, generated by an infrared-focused light source, invisible to the rodent, was applied through a glass pane, to the plantar surface of the hind paw of the animal. The response to this stimulus was considered the withdrawal of the stimulated paw (lifting and licking). Light intensity was set up at 30% and the cut-off at the 20 s. The final value of thermal withdrawal latency, expressed in seconds, was the average value of three consecutive trials. […]

For assay [2], the system named is C57BL/6 mice. Put plainly: Mechanical sensitivity (von Frey, LVF/HVF) after intraplantar injection, mice without capsaicin. The format is in vivo, mouse. To be noted: for HVF Mean / LVF Mean: without capsaicin. Details: key to LVF Mean / HVF Mean: % withdrawals from 10 consecutive von Frey stimulations. The procedure:
as §1, §2
Assessment of mechanical sensitivity
Mechanical sensitivity was assessed using von Frey filaments (VFF 0.1g and 1.0 g force) in mice that were either naïve or received intraplantar (i.p.) injection of capsaicin. VFFs were applied at the injection site (capsaicin or drug unilateral intraderma l injection at the center of the hind paw using a 30 -G needle). VFF of 1.0 g force, which evokes a 40–60% withdrawal response in the naïve condition, was used to detect hyperalgesia, and VFF of 0.1 g […]
mechanical sensitivity was expressed as % withdrawals from 10 consecutive stimulations. […]

[3] abbreviates: naive WT mice, ZL192 i.pl. 0.06 or 0.18 mg/mL.

Residues, ends and D or L forms follow the SMILES beside them. *: point of attachment. Cbz = O=C(OCc1ccccc1)*; NHPh = c1ccc(N*)cc1; OtBu = CC(C)(C)O*

Turning to `COC(=O)[C@@H](NC(=O)[C@H](CCC(=O)OC(C)(C)C)NC(=O)[C@H](CC(C)C)NC(=O)[C@@H]1CCCN1C(=O)OCc1ccccc1)C(C)C` [PW164] (Cbz-PLE(OtBu)V-OMe), the “thermal hindpaw withdrawal thresholds (latency), normal sensitivity” value in assay [1] (WT mice, i.pl., radiant heat test) is listed as “Neither did PW164 affect thermal hindpaw withdrawal thresholds”. The “HVF Mean” value is 50 in assay [2] (PW164 0.07mg/mL, Time (h) 0); 50 in assay [2] (PW164 0.07mg/mL, Time (h) 0.5); 55 in assay [2] (PW164 0.07mg/mL, Time (h) 1); 50 in assay [2] (PW164 0.07mg/mL, Time (h) 1.5); 50 in assay [2] (PW164 0.07mg/mL, Time (h) 2); 53.3333 in assay [2] (PW164 0.21 mg/mL, Time (h) 0). Moreover, the “HVF Mean” value in assay [2] (PW164 0.21 mg/mL, Time (h) 0.5) turned out to be 50; in assay [2] (PW164 0.21 mg/mL, Time (h) 1), 50; in assay [2] (PW164 0.21 mg/mL, Time (h) 1.5), 53.3333; in assay [2] (PW164 0.21 mg/mL, Time (h) 2), 50; in assay [2] (PW164 0.7 mg/mL, Time (h) 0), 53.3333; in assay [2] (PW164 0.7 mg/mL, Time (h) 0.5), 50. Also, the “HVF Mean” value in assay [2] (PW164 0.7 mg/mL, Time (h) 1) is on record as 56.6667; in assay [2] (PW164 0.7 mg/mL, Time (h) 1.5), 53.3333; in assay [2] (PW164 0.7 mg/mL, Time (h) 2), 56.6667. The “LVF Mean” value in assay [2] (PW164 0.07mg/mL, Time (h) 0) was found to be 0; in assay [2] (PW164 0.07mg/mL, Time (h) 0.5) it was 0; in assay [2] (PW164 0.07mg/mL, Time (h) 1) it was 0; in assay [2] (PW164 0.07mg/mL, Time (h) 1.5), 0; in assay [2] (PW164 0.07mg/mL, Time (h) 2), 0; in assay [2] (PW164 0.21 mg/mL, Time (h) 0) it was 0. The “LVF Mean” value in assay [2] (PW164 0.21 mg/mL, Time (h) 0.5) is on record as 0; in assay [2] (PW164 0.21 mg/mL, Time (h) 1), 0; in assay [2] (PW164 0.21 mg/mL, Time (h) 1.5), 0; in assay [2] (PW164 0.21 mg/mL, Time (h) 2) it was 3.333; in assay [2] (PW164 0.7 mg/mL, Time (h) 0), 0; in assay [2] (PW164 0.7 mg/mL, Time (h) 0.5), 0. Besides, the “LVF Mean” value in assay [2] (PW164 0.7 mg/mL, Time (h) 1) was determined as 0; in assay [2] (PW164 0.7 mg/mL, Time (h) 1.5), 3.333; in assay [2] (PW164 0.7 mg/mL, Time (h) 2), 0. Moreover, the “paw withdrawal to LVF/HVF stimulation, normal sensitivity” value in assay [2] (WT mice, i.pl. 5 μL, doses tested) is “did not affect paw withdrawal”.
On to `CC(=O)N[C@@H](Cc1ccccc1)C(=O)N[C@@H](CC(C)C)C(=O)N1CCC[C@H]1C(=O)N[C@@H](CCCCN)C(=O)Nc1ccccc1` [ZL192] (Ac-FLPK-NHPh), for which, in assay [1] (ZL192 0.18 mg/mL, i.pl.), the “thermal hypersensitivity in AAV2-shFGF13 mice” value is “absent”; the “thermal sensitivity in AAV2-shCTRL mice” value is “caused mechanical and thermal hypersensitivity”. The thermal sensitivity entry in assay [1] (setting [3]) is listed as “also seen”. Also, in assay [2] (ZL192 0.18 mg/mL, i.pl.), the “mechanical hypersensitivity in AAV2-shFGF13 mice” value is on record as “absent”; the “mechanical sensitivity in AAV2-shCTRL mice” value is “caused mechanical and thermal hypersensitivity”. Also, in assay [2] (setting [3]), the “duration of increased mechanical response” value is “up to 2 hours”. In assay [2] (naive WT mice, ZL192 i.pl. 5 μL, 0.06 or 0.18 mg/mL, vs vehicle), the “response to LVF and HVF stimulation” value is given as “increased the response”.
